Laboratory results taken from PubChem BioAssay (NCI).
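Growth conditions: 96-well plates. Treatment: test compound, 48 hours, 5 concentrations. Analysis: linear interpolation between bracketing concentrations; unreached endpoints set to highest concentration. GI50 is the concentration that inhibits growth by half. At the TGI there is no net growth.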

What was measured:
Assay in all cases: NCI tumour cell line growth inhibition, 48 h
[1] = test system: HCT-116 colon
[2] = test system: HL-60(TB) leukemia
[3] = test system: HOP-92 NSCLC
[4] = test system: IGROV1 ovarian
[5] = test system: MCF7 breast
[6] = test system: NCI-H522 lung
[7] = test system: OVCAR-4 ovarian
[8] = test system: OVCAR-8 ovarian
[9] = test system: MDA-N

SMILES | TGI [1] [µM] | TGI [2] [µM] | TGI [3] [µM] | TGI [4] [µM] | TGI [5] [µM] | TGI [6] [µM] | TGI [7] [µM] | TGI [8] [µM] | GI50 [4] [µM] | GI50 [5] [µM] | GI50 [7] [µM] | TGI [9] [µM]
Cc1ccccc1OC(C)C(=O)NN1C(=O)CC(=O)N(c2ccccc2)C1=S (configuration not stated) | > 100 | 61.2 | > 100 | > 100 | > 100 | > 100 | > 100 | > 100 |  |  |  | 
C=CC1CN2CCC1CC2C(O)c1ccnc2ccccc12 (configuration not stated) | > 100 | > 100 |  | > 100 | > 100 |  | > 100 | > 100 | > 100 | 5.05 | > 100 | 
NC(=O)Cc1nc2c(=O)[nH]cnc2n1C1OC(CO)C(O)C1O (configuration not stated) | > 100 | > 100 | > 100 | > 100 | > 100 | > 100 | > 100 | > 100 |  |  |  | > 100
Cc1[nH]c(=O)[nH]c(=S)c1C(=O)Nc1cccc2cc3ccccc3cc12 | > 100 | > 100 | > 100 | > 100 | > 100 |  | > 100 | > 100 |  |  |  | 
Cc1cc2cc3c(cc2c(-c2ccc(N)cc2)n1)OCO3 | > 100 | 47.3 | 75.4 | 59.5 | 53.6 | > 100 |  | > 100 |  |  |  | > 100
Cc1nc(-c2cc3cc(Cl)ccc3oc2=O)cc2c1c(=O)oc1ccc(Cl)cc12 | > 100 | > 100 | > 100 | > 100 | > 100 | > 100 |  | > 100 |  |  |  | > 100
CC1CC/C(=C\c2ccc(Cl)cc2)c2nc(N)c(C#N)c(-c3ccc(Cl)cc3)c21 (configuration not stated) | > 100 | 15.4 |  | > 100 | > 100 | > 100 | > 100 | > 100 |  |  |  | > 100
COc1c(C)c(C/C=C(\C)CC/C=C(\C)CCC=C(C)C)c(OC)c(OC)c1OC | > 100 |  | > 100 | > 100 | > 100 | > 100 | > 100 | > 100 |  |  |  | > 100
NC(=O)CO/N=C1/C(c2c(O)[nH]c3ccccc23)=Nc2ccccc21 | > 100 | > 100 | > 100 | > 100 |  | > 100 | > 100 | > 100 |  |  |  | > 100
CC(=O)/C(=C\c1ccc(Cl)c(Cl)c1)C(=O)C(C)CN(C)C (configuration not stated) | 6.79 | 5.36 | 9.55 | 4.88 | 22.4 |  |  | 6.45 |  |  |  | 16.2
CO[C@H]1C[C@H](O[C@H]2CC[C@]3(C=O)[C@H]4CC[C@]5(C)[C@@H](C6=CC(=O)OC6)CC[C@]5(O)[C@@H]4CC[C@]3(O)C2)O[C@H](C)[C@H]1O | 0.737 | 2.51 | 1.73 | 7.86 | 13.1 | 0.499 | 0.341 | 1.03 |  |  |  | 1.87
CC(C)OC1OC(CO)C(O)CC1n1cc(F)c(=O)[nH]c1=O (configuration not stated) | > 100 |  | > 100 | > 100 | > 100 | 37.8 | > 100 | > 100 |  |  |  | > 100
CC(=O)Nc1cc(Nc2cc(=O)[nH]c(=O)[nH]2)ccc1C | > 100 | > 100 | > 100 | > 100 | > 100 |  | > 100 | > 100 |  |  |  | > 100
NCCC1CN(C(=O)OCc2ccccc2)c2ccccc21 (configuration not stated) | 15.6 |  | 26.9 | 33 | 22.9 | 28.8 | > 55.8 | 20.3 |  |  |  | 26.6
CCOC(=O)C1(C(F)(F)F)N=C(CC)OC(N2CCOCC2)=N1 (configuration not stated) | > 100 | > 100 | > 100 | > 100 | > 100 | > 100 | > 100 | > 100 |  |  |  | > 100
CCOC(=O)c1cnccc1CC1(C#N)c2ccccc2C=CN1C(=O)c1ccccc1 (configuration not stated) | > 100 | > 100 | > 100 | 39.9 | > 100 | 54.8 | > 100 | 37.2 |  |  |  | 45.8
CN(C)c1ccc(/C=C2\N=C(c3ccccc3)N(c3ccc4c(c3)Sc3cc(N5C(=O)/C(=C/c6ccc(N(C)C)cc6)N=C5c5ccccc5)ccc3N4)C2=O)cc1 | 67.6 | 61.9 | 35.1 | 32 | 32.4 |  | 61 | 34.4 |  |  |  | > 100
CSc1nc(NC(C)C)c2c(n1)Sc1nc3ccccc3n1C2O (configuration not stated) | > 100 |  | > 100 | > 100 | > 100 | 24.7 | > 100 | > 100 |  |  |  | 11.9
Cn1c2ccccc2n2c3ncccc3c(=S)c(C#N)c12 | > 100 | > 100 |  | > 100 | > 100 | > 100 | > 100 | > 100 |  |  |  | > 100
CN1C(=O)C(O)CC1c1cccc(C(F)(F)F)c1 (configuration not stated) | > 100 | > 100 | > 100 | > 100 | > 100 | > 100 | > 100 | > 100 |  |  |  | 
CCOP(=O)(OCC)/C(C#N)=C/c1cccn1Cc1ccccc1 | 39.7 |  | 36.9 | > 100 | > 100 | 86.8 |  | > 100 |  |  |  | 92.4
COC(=O)C1=C(O)C(C(=O)OC)[C@]2(O)[C@H](C(=O)OC)[C@H]1C[C@@H](c1ccc([N+](=O)[O-])cc1)[C@H]2C(=O)OC (some centres not stated) | 32.3 | 45.8 |  | 30.5 |  | 8.58 | > 100 | 41.4 |  |  |  | 35.6
Cc1cc2c(c(=O)n1C)SCC2 | > 100 |  | > 100 | > 100 |  | > 100 | > 100 | > 100 |  |  |  | > 100
Nc1ncnc2c1ncn2Cc1cccc(CCl)c1 | 24.6 | > 100 | 65.5 | 31.8 | 30.3 | 32.5 | 47.3 | 42.9 |  |  |  | 
